According to patent US7947854B2, “Bis-cationic compounds and use thereof” (The University of Sydney, priority 2003, dated 2011):
In brackets after ≈: the same amount, converted by molar mass.

System: MRSA (methicillin resistant S. aureus)
Assay: In vitro antibacterial activity, NCCLS M7-A6
Type: cell-based
Details: Staphylococcus aureus, read-out: MIC MRSA (methicillin resistant S. aureus)
Procedure: Two bis-cationic compounds were tested for antibacterial activity. The assay used was that published by the National Committee for Clinical Laboratory Standards. 2003. Methods for Dilution Antimicrobial Susceptibility Tests for Bacteria That Grow Aerobically: Approved Standard—Sixth Edition. NCCLS document M7-A6. Villanova, Pa., USA.

CN[C@H](CC(C)C)C(=O)N[C@H]1C(=O)N[C@@H](CC(N)=O)C(=O)N[C@H]2C(=O)N[C@H]3C(=O)N[C@H](C(=O)N[C@H](C(=O)O)c4cc(O)cc(O)c4-c4cc3ccc4O)[C@H](O)c3ccc(c(Cl)c3)Oc3cc2cc(c3O[C@@H]2O[C@H](CO)[C@@H](O)[C@H](O)[C@H]2O[C@H]2C[C@](C)(N)[C@H](O)[C@H](C)O2)Oc2ccc(cc2Cl)[C@H]1O [vancomycin, reference compound]
MIC: 1 mg/L (≈ 0.69 µM)
